pIC50: −log10 of the molar value. Each block holds one compound with its values, some of them ahead of it.
Tests used:
[1] = test system: human colon carcinoma cell line, HT-29; test: HT-29 tumor cell growth inhibition, Sulforhodamine B (SRB) protein binding assay; format: cell-based; details: 144 h, six days continuous exposure
Procedure: These compounds were assayed for their effect on the human colon carcinoma cell line, HT-29 obtained from ATCC, (Rockville, Md.) to ascertain the degree of growth inhibition. Growth inhibition of this cell line is indicative of a benefit on precancerous lesions and neoplasms. The cell line and growth assay employed for these experiments is well characterized, and is used by the United States National Cancer Institute in its screening program for new anti-cancer drugs.
Drug stock solutions were made in 100% DMSO then diluted with RPMI media for cell culture testing. All drug solutions were prepared fresh on the day of testing. The cultured cells were obtained at passage #118 and grown in RPMI media supplemented with 5% fetal calf serum, and 2 mM glutamine, 100 U/ml penicillin, 100 U/ml streptomycin, and 0.25 μg/ml amphotericin. The cultures were maintained in a humidified atmosphere of 95% air and 5% CO2 at 37° C. The cultures were passaged at preconfluent densities using a solution of 0.05% trypsin and 0.53 mM EDTA. All experiments involved HT-29 cells between passages 120 and 140. Cells were plated at the following densities to obtain cultures used for the experiments: 500 cells/well for 96 well flat-bottom microtiter plates, 1×10^6 cells per 25 cm^2 flask.
Tumor cell growth inhibition was assessed using the Sulforhodamine B (SRB) protein binding assay. In this assay, tumor cells were plated in 96-well plates and treated with drug-containing media for six days (continuous exposure). For each plate, 6 wells were designated as no treatment controls, six wells as vehicle (0.1% DMSO) controls, and the remaining wells for drug dilutions with six wells per drug concentration. At the end of the exposure period, the cells were fixed and stained with sulforhodamine B, a protein binding dye. The dye was then solubilized, and the optical density of the resulting solution was determined on a 96-well plate reader. The mean dye intensity of the treated wells was then divided by the mean dye intensity in the control wells (6 wells of each) to determine the effect of the drug on the cells. Dye intensity is proportional to the number of cells or amount of protein per well. The resultant "percent inhibition" value then represents the degree of growth inhibition caused by the drug.
For each experiment, an IC50 value was determined and used for comparative purposes. This value is equivalent to the concentration of drug needed to inhibit tumor cell growth by 50%. IC50 values were obtained graphically by connecting the mean values for each drug concentration tested. Each experiment included at least six wells per drug concentration. Concentration was plotted on a log scale on the X-axis.

purified COX = test: Cyclooxygenase (COX) inhibition, purified COX from ram seminal vesicles; format: biochemical; details: 100 μM dose; arachidonic acid 100 uM, 2.0 min at 37° C.
Procedure: Compounds of this invention, as well as several others (sce Table 2 below), were evaluated to determine whether they inhibited the production of prostaglandin according to the procedure below. COX is involved in the formation of prostaglandins and thromboxane by the oxidative metabolism of arachidonic acid. […] Briefly, purified COX was incubated with arachidonic acid (100 uM) for 2.0 min at 37° C. in the presence or absence of test compounds. The assay was terminated by the addition of TCA, and COX activity was determined by absorbance at 530 nm.

[2] = test system: DMBA-Induced Mammary Lesions; test: Mouse mammary gland organ culture, DMBA-induced mammary lesions; format: cell-based, mouse (female BALB/c); details: 15 glands per group
Procedure: The compound of Example No. 17(d) was also tested for its ability to inhibit the incidence of mammary lesions in an organ culture system. This mouse mammary gland organ culture technique has been successfully used by other investigators to study the effects of known cancer-chemopreventativeagents such as retinoids and selenium.
Female BALB/c mice, 28 days old, were treated for nine days with a combination of 1 μg of estradiol and 1 mg of progesterone daily, in order to prime the glands to be responsive to hormones in vitro. The animals were sacrificed and thoracic mammary glands were excised aseptically and incubated for ten days in growth media supplemented with growth-promoting hormones: insulin, prolactin, and hydrocortisone, at 5 μg/ml each and aldosterone at 1 μg/ml. A twenty-four hour treatment of 7,12-dimethylbenz(a)anthracene (DMBA, 2 μg/ml) was carried out between days three and four to induce the formation of mammary lesions. Fully developed glands were deprived of prolactin, hydrocortisone, and aldosterone for 14 days, resulting in the regression of the glands but not the mammary lesions.
In order to evaluate the effects of Compound No. 17(d), it was dissolved in DMSO and added to the culture media supplemented for the duration of the culture period. At the end of the culture period, the glands were fixed in 10% formalin, stained with alum carmine, and mounted on glass slides. The incidence of forming mammary lesions is the ratio of the glands with mammary lesions and glands without lesions. The incidence of mammary lesions in compound 17(d) treated glands was compared with that of the untreated glands.
The extent of the area occupied by the mammary lesions was quantitated by projecting an image of the gland onto a digitation pad. The area covered by the gland was traced on the pad and considered as 100% of the area, The space covered by each of the unregressed structures was also outlined on the digitization pad and quantitated by the computer.

prostaglandin synthesis = details: cited from earlier work
precancerous lesions = details: cited from earlier work
colonic polyps = details: cited from earlier work

SMILES: CC1=C(CC(=O)O)c2cc(F)ccc2/C1=C\c1ccc(Cl)cc1 [17(b), (Z)-5-fluoro-2-methyl-1-(4-chlorobenzylidene)-3-indenylacetic acid]
pIC50 [1]: 4.24

SMILES: COc1cc(OC)c(/C=C2/C(C)=C(CC(=O)O)c3cc(F)ccc32)c(OC)c1 [17(e), (Z)-5-fluoro-2-methyl-1-(2,4,6-trimethoxybenzylidene)-3-indenylacetic acid]
pIC50 [1]: 4.21

SMILES: COc1cc(OC)c(OC)cc1/C=C1/C(C)=C(CC(=O)O)c2cc(F)ccc21 [17(g), (Z)-5-fluoro-2-methyl-1-(2,4,5-trimethoxybenzylidene)-3-indenylacetic acid]
pIC50 [1]: 4.40

SMILES: CSc1ccc(/C=C2/C(C)=C(CC(=O)O)c3cc(F)ccc32)cc1 [Sulindac Sulfide, reference compound]
% Inhibition (purified COX): 86%
activity as inhibitor of prostaglandin synthesis (prostaglandin synthesis): active moiety as a prostaglandin synthesis inhibitor

SMILES: CC1=C(CC(=O)O)c2cc(F)ccc2/C1=C\c1ccc(S(C)(=O)=O)cc1 [sulfone]
activity as inhibitor of prostaglandin synthesis (prostaglandin synthesis): inactive as an inhibitor of prostaglandin synthesis
activity as inhibitor of precancerous lesions (precancerous lesions): active as an inhibitor of precancerous lesions

SMILES: CC1=C(CC(=O)O)c2cc(F)ccc2/C1=C\c1ccc([S+](C)[O-])cc1 (stereo not drawn) [sulindac]
effect on polyps when patients take the drug (colonic polyps): Polyps virtually disappear

More lines, in order of rising pIC50 [1], values ahead:

pIC50 [1]: 4.40
SMILES: CC1=C(CC(=O)O)c2cc(F)ccc2/C1=C\c1ccccc1 [17(a), (Z)-5-fluoro-2-methyl-1-benzylidene-3-indenylacetic acid]

pIC50 [1]: 4.40
SMILES: COc1ccc(/C=C2/C(C)=C(CC(=O)O)c3cc(F)ccc32)c(OC)c1OC [17(f), (Z)-5-fluoro-2-methyl-1-(2,3,4-trimethoxybenzylidene)-3-indenylacetic acid]

pIC50 [1]: 4.41
% Inhibition (purified COX): No inhibition
SMILES: COc1cc(/C=C2/C(C)=C(CC(=O)O)c3cc(F)ccc32)cc(OC)c1OC [Example 17(d), (Z)-5-fluoro-2-methyl-1-(3,4,5-trimethoxybenzylidene)-3-indenylacetic acid]
Glands with Lesions ([2]; 10 μm): 5
Percent Incidence ([2]; 10 μm): 33.33%
Glands with Lesions ([2]; 100 μm): 0
Percent Incidence ([2]; 100 μm): 0.00%

pIC50 [1]: 4.51
SMILES: CC1=C(CC(=O)O)c2cc(F)ccc2/C1=C\c1c(Cl)cccc1Cl [17(h), (Z)-5-fluoro-2-methyl-1-(2,6-dichlorobenzylidene)-3-indenylacetic acid]

pIC50 [1]: 4.54
SMILES: COc1ccc(/C=C2/C(C)=C(CC(=O)O)c3cc(F)ccc32)cc1 [16(e), (Z)-5-fluoro-2-methyl-1-(p-methoxy-benzylidene)-3-indenylacetic acid]
